Measurements reported in patent US20140363838A1, “MICROPERFUSION IMAGING PLATFORM” (William Marsh Rice University, priority 2013, published 2014).
Converted amounts (≈) assume the structure as drawn.

How the values were obtained:
MDA-MB-468 cells [1] = test: live/dead (calcein-AM/EthD-1) viability assay, microcarrier format on pBNC device; assay type: cell-based; details: Homo sapiens, BNC assays, microcarriers, 24 hour doxorubicin exposure, composite of 3 assays, read-out: Computed IC50 of composite dose curve (percent viability from EthD-1 intensity)
Procedure: Microcarriers cultured with MDA-MB-468 cells were harvested after 5-6 days of static culture with regular media exchanges every 48 hours. Doxorubicin solutions were prepared in fresh, warm media in volumes of 1 mL and added to aliquots of about 200 μL microcarriers and statically incubated for 24 hours at 37° C. Each aliquot was transferred to a sterile 2 ml micro-centrifuge tube where the microcarriers were allowed to settle. After supernatant was removed, microcarriers were rinsed in warm PBS, and incubated in fresh media at 37° C. until assayed. Negative control microcarriers were prepared by replacing this media with 70% methanol and incubating at room temperature for 30 minutes, and then suspended in PBS.
For each assay performed in triplicate (on a prior card embodiment with outlets at the bottom of the card), 4 negative control microcarriers were placed in the 4 outer corners of a 3×4 array of micro-containers through careful manipulation with precision forceps. […]
Images were acquired using a monochrome DVC camera connected to an Olympus BX-2 microscope (Center Valley, Pa.) with a 4× objective at a single focal plane at the top of the microcarriers. […] Intensities for both FITC and TxRed channels were measured separately, using a custom written ImageJ macro that extracts the average of the maxima of a series of line profile scans down each microcarrier. […]

MDA-MB-468 cells [2] = test: live/dead (calcein-AM/EthD-1) viability assay, monolayer 96-well plate, fluorescence plate reader; assay type: cell-based; details: Homo sapiens, 96-well plate assays, 24 hour doxorubicin exposure, composite of 3 assays, read-out: Computed IC50 of composite dose curve (percent viability from EthD-1 intensity)
Procedure: Negative and positive controls were included as columns in each plate for the 96-well plate assays. Four negative control microcarriers were included in each assay on the BNC platform and one positive control assay served as the positive control for determining percent viability. Dose curves were plotted using a 5-parameter curve fitting algorithm in MATLAB (MATHWORKS®).
An equivalent viability assay was performed using standard 96-well plates for comparative purposes. Cells were seeded on 3, 96-well plates (CORNING®) at a final seeding density of about 10,000 cells per well. Plates were incubated at 37° C., 5% CO2 for 72 hours before media was exchanged for doxorubicin-containing media and incubated for an additional 24 hours. Negative control columns on each plate were prepared by replacing media with 70% methanol and incubating for 30 minutes at 37° C. Before imaging, all media was removed and cells were washed with warm PBS and replaced with a calcein-AM/EthD-1 solution with the same concentration as in the pBNC assay. […] A single point scan was performed on each well at excitation/emission wavelengths (nm) of 485/530 for calcein-AM and 530/645 for EthD-1.

[3] = test system: cells on spheroid microcarrier; test: doxorubicin uptake, chip versus plate/static, by Z depth; assay type: cell-based
MDA-MB-468 cells [4] = test: equivalent nuclear assay (fixed cells, DAPI staining) in monolayer
MDA-MB-468 cells [5] = test: nuclear analysis (fixed cells, DAPI staining) of microcarriers on pBNC platform

COc1cccc2c1C(=O)c1c(O)c3c(c(O)c1C2=O)C[C@@](O)(C(=O)CO)C[C@@H]3O[C@H]1C[C@H](N)[C@H](O)[C@H](C)O1 [doxorubicin]
IC50 (MDA-MB-468 cells [1]): 4 µg/mL (≈ 7.36 µM)
IC50 (MDA-MB-468 cells [2]): 10 µg/mL (≈ 18.4 µM)
doxorubicin penetration into spheroid microcarrier cell layers (z-slices) ([3]; 2 hours incubation, observed for both chip and plate platforms): only able to penetrate through a few outer layers of cells
doxorubicin uptake, chip compared with static ([3]; chip vs static, FIG. 14): highly comparable
cells remaining attached (identified nuclear counts) (MDA-MB-468 cells [4]; 100 μg/mL doxorubicin, 24 hour exposure, monolayer): no monolayer cells remained attached
average uncorrected nuclear compactness (MDA-MB-468 cells [4]; monolayer format, increasing doxorubicin concentration): increase in the average uncorrected compactness
average nuclear area (MDA-MB-468 cells [4]; monolayer platform, across 10.000-fold doxorubicin concentration range): increases for low concentrations of doxorubicin and decreases for higher concentrations
distribution of average DAPI intensity of nuclei (MDA-MB-468 cells [4]; monolayer platform, high doxorubicin concentrations (10 μg/mL)): shift in the distribution of DAPI intensities towards lower intensities
cells remaining attached (identified nuclear counts) (MDA-MB-468 cells [5]; 100 μg/mL doxorubicin, 24 hour exposure, Cytodex I microcarriers): some cells remained attached
total cell population (DAPI-stained nuclei / live-dead cell counting) (MDA-MB-468 cells [5]; increasing doxorubicin concentrations, both counting methods): decrease in total cell population
average uncorrected nuclear compactness (MDA-MB-468 cells [5]; microcarrier format, increasing doxorubicin concentration): increase in the average uncorrected compactness
average nuclear area (MDA-MB-468 cells [5]; microcarrier platform, across 10.000-fold doxorubicin concentration range): increases for low concentrations of doxorubicin and decreases for higher concentrations
distribution of average DAPI intensity of nuclei (MDA-MB-468 cells [5]; microcarrier platform, high doxorubicin concentrations (10 μg/mL)): shift in the distribution of DAPI intensities towards lower intensities
